# According to US9910031B2, “Compositions and methods for modulating c-Rel-dependent cytokine production” (Synta Pharmaceuticals Corporation, priority 2003, dated 2018):
# Experiments:
# ICSBP = test: Western blot of ICSBP in THP-1 nuclear extracts (Ets-2 DNA element beads); format: cell-based, human
# Text: Of the transcription factors that have been analyzed, two factors, ICSBP and c-Rel, seem to be affected by Compound 1/Compound 2 treatment. ICSBP binds indirectly to the Ets-2 site. The primary NFκB trans-activator for IL-12 is the c-Rel/p50 heterodimer. Other dimers (p65/p50 and p50/p50) either lack activity or have inhibitory functions. Thus, c-Rel plays a role in IL-12 transcription as a result of both activation through NFκB and its interaction with ICSBP. […] The membranes were blocked with 5% milk in TBST buffer and then incubated with anti-c-Rel, anti-p65, anti-p50, anti-ICSBP or anti-PU-1 antibody (all the antibodies were purchased from Santa Cruz) at a dilution of 1:500 for 1 h at room temperature or overnight at 4° C. The membranes were washed and incubated with Horseradish Peroxidase-conjugated anti-rabbit IgG or anti-mouse IgG (Amersham, England) at a dilution of 1:2000 at room temperature for 1 h.
# The transcription factor ICSBP binds to the Ets-2 element indirectly through binding to PU-1. Nuclear extracts were bound to Ets-2 DNA element beads, the beads isolated to separate bound from free protein, and the proteins analyzed on Western blots using antibodies to either ICSBP or PU-1. Conjugation of Ets-2 DNA to beads was accomplished by the following method. Biotinylated DNA fragment encompassing the IL-12 p40 Ets-2 site (−292 to −196) were synthesized from the 1.3 kb wild-type human IL-12 p40 reporter by PCR using a biotinylated primer as detailed in The Journal of Immunology, 2000, vol 165. pages 271-279. PCR products were purified by the Qiaquick Kit (Qiagen, Chatsworth, Calif.). Two μg of biotinylated DNA were conjugated to 100 μl of streptavidin-hound magnetic beads (Dynabeads, M280, Dynal, Lake Success, N.Y.) in buffer containing 10 mM Tris-HCL, pH 8.0, 1 mM EDTA, 0.1 M NaCl. […] Eluted materials were separated by 10% SDS-PAGE and detected by immunoblot analysis using anti-ICSBP or anti-PU-1 antibody.
# human IL-12 p40 promoter = test: IL-12 p40 promoter/luciferase reporter in transiently transfected RAW264.7 cells; format: cell-based, murine; settings: for p40 promoter-driven luciferase expression: RAW264.7, IFN-γ/LPS or IFN-γ/SAC
# Protocol: As a result of the Northern blot findings, we undertook a study of the p35 and p40 promoter activities. We transiently transfected the murine macrophage cell line RAW264.7 with DNA constructs in which the p35 and p40 promoters directed expression of the luciferase reporter gene. The RAW264.7 cell line was obtained from American Type Culture Collection (Manassas, Va.) and was cultured in DMEM (ATCC, Manassas, Va.) supplemented with 10% FCS (ATCC, Manassas, Va.), and 1% penicillin/Streptomycin (Gibco-BRL, New York, N.Y.).
# Both p35 and p40 promoter-driven luciferase production in response to stimulation were determined in the presence or absence of Compound 1 and Compound 2. To construct the human IL-12 p35 and p40 promoter/luciferase reporter constructs, we generated p35 (−1.5 kb to +3 bp) and p40 (−1.3 kb to +56 bp) promoter fragments, which contained several sequence motifs of the human IL-12 p35 and p40 genes. The fragments were generated by PCR from genomic DNA obtained from human PBMC using primers as follows: IL-12 p35 1.5 kb-F: 5′-[…]-3′(SEQ ID NO:3) and IL-12 p35 1.5 kb-R: 5′-[…]-3′ (SEQ ID NO:4); IL-12 p40 −1.3 kb-F: 5′-[…]-3′ (SEQ ID NO:5) and IL-12 p40 1.3 kb-R: 5′-[…]-3′ (SEQ ID NO:6). The deletion in the p40 promoter reporter constructs were generated by PCR with primers as follows: IL-12 p40 −250 bp to +56 bp (p40/−250 bp) F: 5′-[…]-3′(SEQ ID NO:7) and IL-12 p40 −250 bp to +56 bp (p401/−250 bp) R: 5′-TGCTCTGGGCAGGACGGAG-3′ (SEQ ID NO:8); IL-12 p40 −150 bp to +56 bp (p40/−150 bp) F: 5′-[…]-3′ (SEQ ID NO:9) and IL-12 p40 −150 bp to +56 bp (p40/−150 bp) R: 5′-TGCTCTGGGCAGGACGGAG-3′(SEQ ID NO:10). The resulting PCR products were ligated upstream of the luciferase gene in pGL3-Basic vector (Promega). All constructs were verified by DNA sequencing.
# Transfection was accomplished using SuperFect Transfection Reagent (Qiagen) by the described protocol. Total amount of transfect DNA was kept constant by including the respective control plasmids without insertions.
# Cells were co-transfected with the vector pCMV (BD Biosciences Clontech) in which the constitutively active CMV promoter directs β-galactosidase expression for the monitoring of transfection efficiency. Luciferase and β-galactosidase activity were determined in cell extracts prepared according to the Luciferase assay system (Promega) and Luminescent n-gal Detection system (BD Biosciences Clontech). Luciferase activity was then normalized using the β-galactosidase value. […] ELISA was performed by the following method. Human IL-12 p70 (heterodimer) was assayed using ELI-PAIR kit from Cell Sciences (Norwood, Mass.), according to the manufacturer's instructions. Human IL-12 p40 was assayed using ELISA kit from Cell Sciences (Norwood, Mass.) according to the manufacturer's instructions.
# We then set out to analyze the IL-12 transcriptional promoter elements that played a role in this effect. We performed deletion analyses using the p40 promoter. This promoter, rather than the p35 promoter, was chosen because the transcriptional elements are better defined in the p40 promoter. To identify the IL-12 inhibitor responsive elements involved in the p40 gene transcription activation, three different promoters were constructed and transiently transfected into RAW264.7 cells.
# To assess the role of individual p40 promoter transcription elements in more detail, mutations within many of these elements have been generated. […]
Compound,amount of ICSBP protein in nuclear extracts (FIG. 5) (ICSBP; THP-1 cells),p40 promoter-driven luciferase expression (human IL-12 p40 promoter),"IL-12 p40 promoter-driven luciferase activity, deletion construct (human IL-12 p40 promoter; RAW264.7, IFN-γ/LPS, promoter containing Ets-2, PU-1, NF-κB and API elements)",ICSBP expression (ICSBP),ICSBP in the nuclei of treated cells (ICSBP),effect of ICSBP over-expression on inhibition of p40 expression (human IL-12 p40 promoter; co-transfection of ICSBP with IL-12 promoter-Luc reporter),"inhibition of expression in NFκB-element mutant p40 promoter construct (human IL-12 p40 promoter; site-directed mutant of the NFκB element, IFN-γ/LPS)"
"C(=NNc1nc(OCCc2ccccn2)nc(N2CCOCC2)n1)c1c[nH]c2ccccc12 [Compound 1, N-(1H-indol-3-ylmethylene)-N′-[4-morpholin-4-yl-6-(2-pyridin-2-yl-ethoxy)-[1,3,5]triazin-2-yl]-hydrazine]",significant reduction,suppressed,significantly suppressed,,,,
"Cc1cccc(C=NNc2cc(N3CCOCC3)nc(OCCc3ccccn3)n2)c1 [Compound 2, N-(3-methyl-benzylidene)-N′-[6-morpholin-4-yl-2-(2-pyridin-2-yl-ethoxy)-pyrimidin-4-yl]-hydrazine]",,suppressed,,reduced,reduced,decreased the inhibition,reduced
